In US10398751B2, “Pharmaceutical compositions of water soluble peptides with poor solubility in isotonic conditions and methods for their use” (STRONGBRIDGE IRELAND LIMITED, priority 2016, dated 2019):
Where two headings read alike, the source gives them in different places.

Legend:
[1] = Emulsification of cottonseed oil and water for injection; assay type: physicochemical; conditions: 16.6 weight % cottonseed oil, 74.2 weight % WFI, 9.2 weight % peptide, room temperature
Description: Based on its amphiphilic properties, veldoreotide acetate was evaluated by means of emulsion formulation. […] Thus, veldoreotide acetate may be considered a w/o ionic surfactant or hydrotrope with a hydrophilic lipophilic balance (HLB) of 6.
The samples were mixed using 25G syringe and vortexed at room temperature.
Veldoreotide was formulated as a water in oil emulsion using 80% (wt %) cottonseed oil, 20% (wt %) water for injection (WFI) and 1% (wt %) veldoreotide acetate. Specifically, 10 mg of veldoreotide acetate was dissolved in 200 uL WFI in a 5 mL glass vial, 800 mg of cottonseed oil was added and the resulting mixture was stirred under magnetic stirring at room temperature for 15 minutes at 1000 rpm. The emulsion was then viewed under the light microscope and stored under refrigeration. The resulting emulsion was stable and found to be injectable via 27G needle.

[2] = Comparative surface tension of peptides in water for injection; assay type: physicochemical; conditions: 10 mg/ml in WFI; for Effect of reduced surface tension (%): baseline WFI; for Water surface tension (dyne/cm): baseline WFI 52
[3] = cited from earlier work
[4] = Density, pH and surface tension of solutions (capillary method); assay type: physicochemical
Description: Tween 80 was used as a control surfactant for comparison. Densities were measured on 1 mL fixed volume samples. […] The effect of veldoreotide acetate on the pH of double distilled water (DDW) was the same at all veldoreotide acetate concentrations. The pH of DDW of 5.0 was reduced to pH 4.5. The effect of veldoreotide acetate on the density of DDW (starting density of DDW was 1.003 g/ml) was concentration dependent from 1.4 mg/ml to 21.5 mg/ml with density ranging from 0.986 to 0.998 g/ml respectively. However, at veldoreotide acetate concentrations of 45 and 102 mg/ml the density was increased above the starting density of DDW. […] The effect of veldoreotide acetate on the surface tension of DDW (starting surface tension was 64.9 dyne/cm) was consistent with veldoreotide acetate behaving as a peptide amphiphile (surfactant). The surface tension of DDW was reduced by veldoreotide acetate at maximum from 64.9 to 45 dyne/cm. In order to elucidate the meaning of this effect, Tween 80 was used as a reference surfactant. Other surfactants include Polexamer 188. The reduction of surface tension induced by Tween 80 was in the range of 40% (from 64.9 dyne/cm to about 39 dyne/cm), in comparison to veldoreotide acetate of 30% (from 64.9 dyne/cm to about 45 dyne/cm). Note that, under these experimental conditions; the effect of Tween 80 indicated a concentration-effect relationship. Whereas, the effect of veldoreotide acetate on the reduction of surface tension was at the same range for all concentrations tested.
The data of table 4 show the surface activity of highly concentrated COR005 acetate (200 mg/ml), with or without additives in WFI, which emulates the preparation conditions of the primary emulsion of the microspheres. The results of Test 1 and 2 (Table 4) show the effect of COR005 acetate on the surface tension of water. When COR005 acetate is dissolved in water the surface tension is reduced by about 36%, from 68.5 dyne/cm for the water alone to 44 dyne/cm for the solution of water with CR005 acetate at 200 mg/ml.

% change in surface tension compared to baseline ([4]; 7 mg/ml in DDW, 25° C.) [%] | Density (g/ml) Weighted 1 ml ([4]; 7 mg/ml in DDW, 25° C.) [g/mL] | Surface tension (dyne/cm) capillary method ([4]; 7 mg/ml in DDW, 25° C.) [dyne/cm] | % change in surface tension compared to baseline ([4]; 14 mg/ml in DDW, 25° C.) [%] | Density (g/ml) Weighted 1 ml ([4]; 14 mg/ml in DDW, 25° C.) [g/mL] | Surface tension (dyne/cm) capillary method ([4]; 14 mg/ml in DDW, 25° C.) [dyne/cm] | % change in surface tension compared to baseline ([4]; 28 mg/ml in DDW, 25° C.) [%] | Density (g/ml) Weighted 1 ml ([4]; 28 mg/ml in DDW, 25° C.) [g/mL] | Surface tension (dyne/cm) capillary method ([4]; 28 mg/ml in DDW, 25° C.) [dyne/cm] | surface tension of DDW solution ([4]; DDW pH 5.0, 25° C., baseline 64.9 dyne/cm (text summary, concentration not specified)) | reduction of surface tension of water ([4]; DDW, 25° C., baseline 64.9 dyne/cm) [%] | SMILES | emulsification [1] | Effect of reduced surface tension (%) [2] [%] | Water surface tension (dyne/cm) [2] [dyne/cm] | surface area ([3]; microspheres prepared from PLGA and octreotide acetate with 0 glucose (Biomaterials, 2004, 25, 1919-1927)) [m^2/g] | surface area ([3]; microspheres prepared from PLGA and octreotide acetate with 0.2% of glucose (Biomaterials, 2004)) [m^2/g] | surface area ([3]; microspheres prepared from PLGA and octreotide acetate with 1% of glucose (Biomaterials, 2004)) [m^2/g]
– | – | – | – | – | – | – | – | – | – | – | CC(C)C[C@H](NC(=O)[C@@H](COC(C)(C)C)NC(=O)[C@H](Cc1ccc(O)cc1)NC(=O)[C@H](CO)NC(=O)[C@H](Cc1c[nH]c2ccccc12)NC(=O)[C@H](Cc1cnc[nH]1)NC(=O)[C@@H]1CCC(=O)N1)C(=O)N[C@@H](CCCNC(=N)N)C(=O)N1CCC[C@H]1C(=O)NNC(N)=O [Goserelin] | least potential for emulsion formation | −37 | 33 | – | – | –
– | – | – | – | – | – | – | – | – | – | – | C[C@@H](O)[C@@H]1NC(=O)[C@H](CCCCN)NC(=O)[C@@H](Cc2c[nH]c3ccccc23)NC(=O)[C@H](Cc2ccccc2)NC(=O)[C@@H](NC(=O)[C@H](N)Cc2ccccc2)CSSC[C@@H](C(=O)N[C@H](CO)[C@@H](C)O)NC1=O [Octreotide] | weak emulsification efficiency | −27 | 38 | 4.4 | 4.7 | 4.9
−39 | 0.9945 | 39.6 | −39 | 0.988 | 39.35 | −40 | 0.975 | 38.8 | about 39 dyne/cm | ~40 | CCCCCCCC/C=C\CCCCCCCC(=O)OCCOCC(OCCO)C1OCC(OCCO)C1OCCO (centres unmarked) [Tween 80, reference compound] | – | – | – | – | – | –
